In US9914731B2, “Pyrazolo[1,5-a]pyridine derivatives and methods of their use” (Ignyta, Inc., priority 2013, dated 2018):

Each compound was assayed against recombinant human baculovirus-expressed cMET (Homo sapiens (Human), UniProt P08581) (assay: c-MET kinase assay (HTRF KinEASE)). Details: average of two or more determinations; read-out: c-MET IC50.
Format: biochemical

Row | SMILES | IC50
1 | Cn1cnc(-c2cc(Oc3ccc(NC(=O)c4cn(CCO)c(=O)n(-c5ccc(F)cc5)c4=O)cc3F)c3ccnn3c2)c1 [Example 97, 3-(4-Fluoro-phenyl)-1-(2-hydroxy-ethyl)-2,4-dioxo-1,2,3,4-tetrahydro-pyrimidine-5-carboxylic acid{3-fluoro-4-[6-(1-methyl-1H-imidazol-4-yl)-pyrazolo[1,5-a]pyridin-4-yloxy]-phenyl}-amide] | < 10 nM
2 | CCn1cc(C(=O)Nc2ccc(Oc3cc(-c4cncn4C)cn4nccc34)c(F)c2)c(=O)n(-c2ccc(F)cc2)c1=O [Example 100, 1-Ethyl-3-(4-fluoro-phenyl)-2,4-dioxo-1,2,3,4-tetrahydro-pyrimidine-5-carboxylic acid{3-fluoro-4-[6-(3-methyl-3H-imidazol-4-yl)-pyrazolo[1,5-a]pyridin-4-yloxy]-phenyl}-amide] | < 10 nM
3 | Cn1cnc(-c2cc(Oc3ccc(NC(=O)C4(C(=O)Nc5ccc(F)cc5)CC4)cc3F)c3ccnn3c2)c1 [Example 108, Cyclopropane-1,1-dicarboxylic acid{3-fluoro-4-[6-(1-methyl-1H-imidazol-4-yl)-pyrazolo[1,5-a]pyridin-4-yloxy]-phenyl}-amide(4-fluoro-phenyl)-amide] | < 10 nM
4 | CCn1cc(C(=O)Nc2ccc(Oc3cc(-c4cn(C)cn4)cn4nccc34)c(C)c2)c(=O)n(-c2ccc(F)cc2)c1=O [Example 109, 1-Ethyl-3-(4-fluoro-phenyl)-2,4-dioxo-1,2,3,4-tetrahydro-pyrimidine-5-carboxylic acid{3-methyl-4-[6-(1-methyl-1H-imidazol-4-yl)-pyrazolo[1,5-a]pyridin-4-yloxy]-phenyl}-amide] | < 10 nM
5 | CCOc1ccn(-c2ccc(F)cc2)c(=O)c1C(=O)Nc1ccc(Oc2cc(-c3cn(C)cn3)cn3nccc23)c(F)c1 [Example 112, 4-Ethoxy-1-(4-fluoro-phenyl)-2-oxo-1,2-dihydro-pyridine-3-carboxylic acid {3-fluoro-4-[6-(1-methyl-1H-imidazol-4-yl)-pyrazolo[1,5-a]pyridin-4-yloxy]-phenyl}-amide] | < 10 nM

Continued, values first:

Row | IC50 | SMILES
6 | < 10 nM | Cn1ccnc1-c1cc(Oc2ccc(NC(=O)c3cccn(-c4ccc(F)cc4)c3=O)cc2F)c2ccnn2c1 [Example 90, 1-(4-Fluoro-phenyl)-2-oxo-1,2-dihydro-pyridine-3-carboxylic acid{3-fluoro-4-[6-(1-methyl-1H-imidazol-2-yl)-pyrazolo[1,5-a]pyridin-4-yloxy]-phenyl}-amide]
7 | < 10 nM | Cc1ccc(C(=O)Nc2ccc(Oc3cc(-c4ncco4)cn4nccc34)c(F)c2)c(=O)n1-c1ccc(F)cc1 [Example 98, 1-(4-Fluoro-phenyl)-6-methyl-2-oxo-1,2-dihydro-pyridine-3-carboxylic acid [3-fluoro-4-(6-oxazol-2-yl-pyrazolo[1,5-a]pyridin-4-yloxy)-phenyl]-amide]
8 | < 10 nM | O=C(Nc1ccc(Oc2cc(-c3cncs3)cn3nccc23)c(F)c1)c1cccn(-c2ccc(F)cc2)c1=O [Example 105, 1-(4-Fluoro-phenyl)-2-oxo-1,2-dihydro-pyridine-3-carboxylic acid[3-fluoro-4-(6-thiazol-5-yl-pyrazolo[1,5-a]pyridin-4-yloxy)-phenyl]-amide]
9 | < 10 nM | CC(C)n1cc(C(=O)Nc2ccc(Oc3cc(-c4cscn4)cn4nccc34)c(F)c2)c(=O)n(-c2ccc(F)cc2)c1=O [Example 106, 3-(4-Fluoro-phenyl)-1-isopropyl-2,4-dioxo-1,2,3,4-tetrahydro-pyrimidine-5-carboxylic acid[3-fluoro-4-(6-thiazol-4-yl-pyrazolo[1,5-a]pyridin-4-yloxy)-phenyl]-amide]

Same assay, conditions: read-out: c-MET IC50

Row | SMILES | IC50
10 | CC(C)n1cc(C(=O)Nc2ccc(Oc3cc(-c4ncco4)cn4nccc34)c(F)c2)c(=O)n(-c2ccc(F)cc2)c1=O [Example 99, 3-(4-Fluoro-phenyl)-1-isopropyl-2,4-dioxo-1,2,3,4-tetrahydro-pyrimidine-5-carboxylic acid[3-fluoro-4-(6-oxazol-2-yl-pyrazolo[1,5-a]pyridin-4-yloxy)-phenyl]-amide] | < 10 nM
